Data on 58 compounds can be found in US9617282B2, “Macrocyclic compounds as IRAK4 inhibitors for the treatment of inflammatory diseases” (BIOGEN MA INC., priority 2013, dated 2017).

One assay deals with IRAK4 (Homo sapiens (Human), UniProt Q9NWZ3). Briefly: IRAK-4 biochemical kinase assay, AlphaScreen format.
IRAK4, sequence (Q9NWZ3 whole entry, species assumed): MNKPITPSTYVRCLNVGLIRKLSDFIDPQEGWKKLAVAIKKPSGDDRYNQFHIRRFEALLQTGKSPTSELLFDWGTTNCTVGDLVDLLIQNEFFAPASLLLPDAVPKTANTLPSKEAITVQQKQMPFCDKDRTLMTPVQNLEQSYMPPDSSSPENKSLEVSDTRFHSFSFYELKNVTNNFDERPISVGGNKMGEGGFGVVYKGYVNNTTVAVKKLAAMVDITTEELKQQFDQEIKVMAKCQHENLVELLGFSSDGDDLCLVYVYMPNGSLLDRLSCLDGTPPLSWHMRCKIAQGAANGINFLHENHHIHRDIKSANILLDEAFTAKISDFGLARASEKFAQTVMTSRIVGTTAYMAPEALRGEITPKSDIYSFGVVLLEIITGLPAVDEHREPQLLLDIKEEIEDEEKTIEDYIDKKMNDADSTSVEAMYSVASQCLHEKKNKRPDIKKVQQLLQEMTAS
Conditions: not given
The procedure: The biochemical assay is in a AlphaScreen format. The kinase reaction is based on the IRAK-4 phosphorylation of a biotin labeled peptide. The phosphopeptide is incubated with anti-phosphothreonine antibody as well as streptavidin- and protein A-coated beads. Binding of the protein-A coated beads to the antibody and the streptavidin beads to the peptide, leads to an energy transfer from one bead to the other, ultimately producing a luminescent/fluorescent signal.
A general note: Alpha assays give light when donor and acceptor beads are brought close together.
As for `O=C1Nc2ccccc2OCCCCCCCn2cc(cn2)-c2nc1cs2` [Compound 6], the IC50 is less than 1000 nM.

The same assay, now with this note: 1 nM IRAK4, 1.6 μM peptide, 10 μM ATP, 3.5 h at RT; class symbols.
For the compound `O=C1Nc2ccccc2OCCCCCOc2cc(ccn2)-c2nc1co2` [Compound 3], the IC50 was less than 1000 nM.
Still for that read-out and setting: as for `O=C1Nc2ccccc2OCCCCCCc2cc(ccn2)-c2nc1co2` [Compound 5], the figure is less than 100 nM; as for `O=C1Nc2ccccc2OCCCCCCCn2cc(cn2)-c2nc1co2` [Compound 8], less than 100 nM.
The compound `O=C1NCCCCCCCCCn2cc(cn2)-c2nc1co2` [Compound 9] showed an IC50 of less than 1000 nM.
On the same count and under the same terms, for `CC1CCCCOc2ccccc2NC(=O)c2coc(n2)-c2ccnc(c2)N1` (stereo not shown) [Compound 10] the value was less than 100 nM.
`CN1CCCCCOc2ccccc2NC(=O)c2coc(n2)-c2ccnc1c2` [Compound 11] came in with an IC50 of less than 1000 nM.
Still for that read-out and setting: as for `O=C1Nc2ccccc2OCCCCCNc2cc(ccn2)-c2nc1cs2` [Compound 13], the figure is less than 100 nM; as for `O=C(O)c1ccc2c(c1)NC(=O)c1csc(n1)-c1ccnc(c1)NCCCCCO2` [Compound 15], less than 10000 nM; as for `CNC(=O)c1ccc2c(c1)NC(=O)c1csc(n1)-c1ccnc(c1)NCCCCCO2` [Compound 17], less than 100 nM.
In turn, `O=C(NCCN1CCCCC1)c1ccc2c(c1)NC(=O)c1csc(n1)-c1ccnc(c1)NCCCCCO2` [Compound 18] came in with an IC50 of less than 100 nM.
Still for that read-out and setting: as for `O=C(NCCN1CCOCC1)c1ccc2c(c1)NC(=O)c1csc(n1)-c1ccnc(c1)NCCCCCO2` [Compound 19], the figure is less than 100 nM; as for `CN(C)C1CCN(C(=O)c2ccc3c(c2)NC(=O)c2csc(n2)-c2ccnc(c2)NCCCCCO3)C1` (stereo not shown) [Compound 21], less than 100 nM; as for `O=C1Nc2cc(C(=O)N3CCOCC3)ccc2OCCCCCNc2cc(ccn2)-c2nc1cs2` [Compound 22], less than 100 nM.
Consider `CN1CCN(C(=O)c2ccc3c(c2)NC(=O)c2csc(n2)-c2ccnc(c2)NCCCCCO3)CC1` [Compound 23], for which the half-maximal inhibitory concentration (IC50) was less than 100 nM.
`NC(=O)c1ccc2c(c1)NC(=O)c1csc(n1)-c1ccnc(c1)NCCCCCO2` [Compound 24] yielded an IC50 of less than 100 nM.
On the same count and under the same terms, as for `CN(C)CCNC(=O)c1ccc2c(c1)OCCCCCNc1cc(ccn1)-c1nc(cs1)C(=O)N2` [Compound 25], the figure is less than 100 nM; as for `O=C1Nc2cc(CCCN3CCCCC3)ccc2OCCCCCNc2cc(ccn2)-c2nc1cs2` [Compound 26], less than 100 nM; as for `O=C1Nc2ccc(CCCN3CCCCC3)cc2OCCCCCNc2cc(ccn2)-c2nc1cs2` [Compound 27], less than 100 nM.
With `Cn1cc2c(n1)C(=O)NCCC/C=C/CCCN(C(=O)OC(C)(C)C)c1cc(ccn1)-c1nc(co1)C(=O)N2` [Compound 28], the 50% inhibitory concentration (IC50) is less than 1000 nM.
Same read-out and setting: as for `Cn1cc2c(n1)C(=O)NCCCCNc1cc(ccn1)-c1nc(co1)C(=O)N2` [Compound 31], the figure is less than 100 nM; as for `Cn1cc2c(n1)C(=O)NCCCCCNc1cc(ccn1)-c1nc(co1)C(=O)N2` [Compound 33], less than 100 nM; as for `Cn1cc2c(n1)C(=O)NCCOCCOc1cc(ccn1)-c1nc(co1)C(=O)N2` [Compound 35], less than 100 nM.
As for `O=C1Nc2cn(C3CCOCC3)nc2C(=O)NCCCCOc2cc(ccn2)-c2nc1co2` [Compound 36], the half-maximal inhibitory concentration (IC50) was less than 100 nM.
On to `Cn1cc2c(n1)C(=O)NCCCCCOc1cc(ccn1)-c1nc(co1)C(=O)N2` [Compound 37], for which the IC50 was less than 100 nM.
Consider `O=C1Nc2cn(C3CCOCC3)nc2C(=O)NCCCCCOc2cc(ccn2)-c2nc1co2` [Compound 38], for which the IC50 was less than 100 nM.
In turn, `Cn1cc2c(n1)C(=O)NCCCCCc1cc(ccn1)-c1nc(co1)C(=O)N2` [Compound 39] yielded an IC50 of less than 100 nM.
Compound `Cn1cc2c(n1)C(=O)NCCCCCn1cc(cn1)-c1nc(co1)C(=O)N2` [Compound 41] registered an IC50 of less than 1000 nM.
For the compound `O=C1Nc2cn(C3CCOCC3)nc2C(=O)NCCCCCn2cc(cn2)-c2nc1co2` [Compound 42], the IC50 is less than 1000 nM.
On to `O=C1c2coc(n2)-c2ccnc(c2)OCCCCCCN1Cc1ccccc1` [Compound 51], for which the IC50 is less than 10000 nM.
`CCN1CCCCCCOc2cc(ccn2)-c2nc(co2)C1=O` [Compound 53] had an IC50 of less than 100 nM.
Compound `CN(C)CCN1CCCCCCOc2cc(ccn2)-c2nc(co2)C1=O` [Compound 54] registered an IC50 of less than 1000 nM.
As to `O=C1NCCCCCCOc2cc(ccn2)-c2nc1co2` [Compound 58], the IC50 was less than 1000 nM.
For the compound `O=C1c2coc(n2)-c2ccnc(c2)NCCCCCOCC2CCCN12` (stereo not shown) [Compound 59], the half-maximal inhibitory concentration (IC50) was less than 100 nM.
`Cn1cc(N2CCCCCOc3cnccc3-c3nc(co3)C2=O)cn1` [Compound 61] yielded an IC50 of less than 1000 nM.
In turn, `O=C1Nc2ccccc2OCC/C=C/COc2cc(ccn2)-c2nc1co2` [Example 1] yielded an IC50 of less than 100 nM.
Still for that read-out and setting: for `Cn1cc2c(n1)C(=O)NCCCCOc1cnccc1-c1nc(co1)C(=O)N2` [Example 62] the value was less than 1000 nM; for `Cn1cc2c(n1)C(=O)NCCCCCOc1cnccc1-c1nc(co1)C(=O)N2` [Example 63], less than 100 nM.
Compound `O=C1NCCCCCCCCNc2cc(ccn2)-c2nc1cs2` [Example 64] showed an IC50 of less than 1000 nM.
`CCN1CCCCCCCCN(CC)c2cc(ccn2)-c2nc(cs2)C1=O` [Example 65] displayed an IC50 of less than 10000 nM.
On to `CCN1CCCCCCCCNc2cc(ccn2)-c2nc(cs2)C1=O` [Example 66], for which the IC50 was less than 1000 nM.
Compound `CCN1CCCCCCCCNC(=O)c2csc(n2)-c2ccnc1c2` [Example 67] gave an IC50 of less than 1000 nM.
`O=C1NCCCCCCCCNc2cc(ccn2)-c2nc1co2` [Example 68] had an IC50 of less than 100 nM.
Consider `CC1CCCCNc2cc(ccn2)-c2nc(co2)C(=O)Nc2ccccc2O1` (stereo not shown) [Example 69], for which the IC50 was less than 100 nM.
Compound `CC1CCCC(C)Oc2ccccc2NC(=O)c2coc(n2)-c2ccnc(c2)N1` (stereo not shown) [Example 71] yielded a 50% inhibitory concentration (IC50) of less than 100 nM.
`O=C1Nc2ccccc2OCCCCCCn2cc(cn2)-c2nc1cs2` [Example 72] showed an IC50 of less than 100 nM.
Same read-out and setting: for `O=C1Nc2cc(Br)ccc2OCCCCCNc2cc(ccn2)-c2nc1cs2` [Example 73] the value was less than 100 nM; for `CC1CNC(=O)c2coc(n2)-c2ccnc(c2)NCCCCCO1` (stereo not shown) [Example 74], less than 10000 nM; for `O=C1NCC(C2CC2)OCCCCCNc2cc(ccn2)-c2nc1co2` (stereo not shown) [Example 75], less than 1000 nM.
Compound `O=C1NCC(c2ccccc2)OCCCCCNc2cc(ccn2)-c2nc1co2` (stereo not shown) [Example 76] showed an IC50 of less than 100 nM.

Still in this assay, the particulars now being: 1 nM IRAK4, 1.6 μM peptide, 10 μM ATP, 3.5 h at RT; given as numeric bound.
Take `COC(=O)c1ccc2c(c1)NC(=O)c1csc(n1)-c1ccnc(c1)NCCCCCO2` [Compound 14]: the IC50 is greater than 10000 nM.
Still for that read-out and setting: for `CCn1cc(N2CCCCCCOc3cc(ccn3)-c3nc(co3)C2=O)cn1` [Compound 50] the value was greater than 10000 nM; for `CN1CCCCCCOc2cc(ccn2)-c2nc(co2)C1=O` [Compound 52], greater than 10000 nM; for `CN(C)CCCN1CCCCCCOc2cc(ccn2)-c2nc(co2)C1=O` [Compound 55], greater than 10000 nM.
`O=C1c2coc(n2)-c2ccnc(c2)OCCCCCCN1CCN1CCCCC1` [Compound 56] displayed an IC50 greater than 10000 nM.
Still for that read-out and setting: for `O=C1c2coc(n2)-c2ccnc(c2)OCCCCCCN1CCCN1CCCCC1` [Compound 57] the value was greater than 10000 nM; for `O=C1Nc2ccccc2OCCCCNc2cc(ccn2)-c2nc1co2` [Example 70], greater than 10000 nM; for `O=C1NCC(C2CCCCC2)OCCCCCNc2cc(ccn2)-c2nc1co2` (stereo not shown) [Example 77], greater than 10000 nM.

Usually IC50 stands for the midpoint of a concentration-inhibition curve.
